Source: PMC11596392, “Enhanced Antibacterial, Anti-Inflammatory, and Antibiofilm Activities of Tryptophan-Substituted Peptides Derived from Cecropin A-Melittin Hybrid Peptide BP100” (Molecules, 2024)
Where no end group is shown, it is not given here.

What was measured:
[1] = system: S. aureus (KCTC 1621); type: cell-based, Staphylococcus aureus; details: broth microdilution in MHB, 37 °C, 24 h, 100% inhibition of growth
Protocol: (§1) The antibacterial efficacy of the synthesized peptides was evaluated by determining the minimal inhibitory concentrations (MICs) against six standard bacterial strains and five drug-resistant bacterial strains using the Clinical and Laboratory Standards Institute (CLSI) microdilution method. Melittin served as the positive control.
(§2) The minimal inhibitory concentrations (MICs) of the peptides against bacterial strains were determined using a modified broth-microdilution method in accordance with the National Committee for Clinical Laboratory Standards (NCCLS) guidelines. Overnight cultures were diluted in cation-adjusted Mueller–Hinton Broth (MHB) to achieve an inoculum density of 2 × 10^6 CFU/mL. A two-fold serial dilution of the peptide solution (100 μL) was introduced into microtiter plates, followed by the addition of 100 μL of bacterial suspension. The plates were then incubated at 37 °C for 24 h to determine the MICs. Wells containing only culture media served as negative controls, while those with added bacteria functioned as positive controls. The MIC, expressed in μM, was defined as the lowest peptide concentration that prevented visible bacterial growth. This protocol was also employed to determine MICs in the presence of physiological salts (150 mM of NaCl, 4.5 mM of KCl, 6 μM of NH4Cl, 1 mM of MgCl2, 2.5 mM of CaCl2, and 4 μM of FeCl3) and 20% human serum to assess the peptides’ efficacy under conditions more closely resembling physiological environments. All experiments were conducted in triplicate and repeated three times independently to ensure reproducibility and statistical significance of the results.

[2] = system: S. epidermidis (KCTC 1917); type: cell-based, Staphylococcus epidermidis; details: broth microdilution in MHB, 37 °C, 24 h, 100% inhibition of growth
Protocol: as §1, §2

[3] = system: VREF (ATCC 51559); type: cell-based, vancomycin-resistant Enterococcus faecium; details: broth microdilution in MHB, 37 °C, 24 h, 100% inhibition of growth
Protocol: as §1, §2

[4] = system: E. coli (KCTC 1682); type: cell-based, Escherichia coli; details: broth microdilution in MHB, 37 °C, 24 h, 100% inhibition of growth
Protocol: as §1, §2

[5] = system: S. typhimurium (KCTC 1926); type: cell-based, Salmonella typhimurium; details: broth microdilution in MHB, 37 °C, 24 h, 100% inhibition of growth
Protocol: as §1, §2

[6] = system: MDRPA (CCARM 2095); type: cell-based, multidrug-resistant Pseudomonas aeruginosa; details: broth microdilution in MHB, 37 °C, 24 h, 100% inhibition of growth
Protocol: as §1, §2

[7] = system: MDRPA (CCARM 2109); type: cell-based, multidrug-resistant Pseudomonas aeruginosa; details: broth microdilution in MHB, 37 °C, 24 h, 100% inhibition of growth
Protocol: as §1, §2

[8] = system: sheep red blood cells (sRBCs); assay: Hemolytic activity assay; type: cell-based; details: 4% (v/v) sheep red blood cells in PBS, 1 h, 37 °C; 1 to 256 μM tested
Protocol: To assess toxicity in mammalian cells, we evaluated the hemolytic activity of the peptides on sheep red blood cells (sRBCs). […] The therapeutic index (TI), a measure commonly employed to evaluate the cell selectivity of antibacterial agents, was calculated as the ratio of the concentration causing 10% hemolysis of sRBCs (HC10) to the GM [19, 20, 21, 22].
The hemolytic activity of the peptides was tested through hemolysis assay of sheep red blood cells (sRBCs). The sRBCs were diluted in PBS to achieve a 4% (v/v) concentration. Subsequently, 100 μL of peptide solutions, ranging from 1 to 256 μM, was dispensed into a 96-well plate containing an equal volume of the erythrocyte suspension. After incubating for 1 h at 37 °C and centrifuging at 1000× g for 10 min, 100 μL of the supernatant was transferred to a new 96-well plate. Hemoglobin release was quantified using a microplate reader at a wavelength of […]. The percentage of hemolysis was calculated using percentage hemolysis = 100 × [[…]], where A represents the absorbance of the peptide-treated sample at 540 nm, A0 corresponds to the absorbance value representing 0% hemolysis in PBS, and At corresponds to the absorbance value representing 100% hemolysis in 0.1% Triton X-100.

[9] = system: preformed MDRPA (CCARM 2095) biofilms; type: cell-based, multidrug-resistant Pseudomonas aeruginosa; details: 24 h treatment; for MBEC50: 50% eradication; for MBEC90: 90% eradication
Protocol: While preventing biofilm formation on surfaces is crucial, treating established biofilm infections presents a significant challenge due to the extracellular polymeric substance (EPS) matrix hindering antibiotic penetration and the high cell density within mature biofilms. To address this challenge, we evaluated the ability of BP100 and its analogs to eradicate established MDRPA biofilms over a 24 h period. The minimum biofilm eradication concentration (MBEC90) was determined using crystal violet staining as the lowest concentration that reduced biomass by more than 90%. Among these peptides, BP5, BP6, BP7, BP8, BP9, BP11, and BP13 eradicated preformed MDRPA biofilms by more than 90% at a concentration of 8 μM (Figure 3c,d and Table 3).
The minimal biofilm eradication concentration (MBEC) for peptides against the multidrug-resistant Pseudomonas aeruginosa (MDRPA) (CCARM 2095) strain was assessed using the Calgary Biofilm Device (CBD), supplied by Innovotech, Edmonton, AB, Canada. A bacterial suspension with a density of (1 × 10^6) CFU/mL in (150 µL) of Luria–Bertani (LB) media was dispensed into each well of a 96-well microtiter plate, which was equipped with a peg lid (Innovotech, product code: 19111). This plate was incubated at 37 °C for 24 h with agitation at 110 rpm, promoting biofilm formation on the pegs. Subsequently, the peg lid was washed with phosphate-buffered saline (PBS, 0.01 M) and relocated to a fresh plate containing varying peptide concentrations (200 µL per well). The biofilms were then subjected to these peptides under the same incubation conditions. After another PBS rinse, the peg lid was moved to a recovery plate filled with (200 µL) of LB media per well. To detach the biofilms from the pegs, the recovery plate underwent sonication in a water bath for 10 to 15 min. Finally, the recovery plate was incubated at 37 °C for 24 h with agitation at 110 rpm, allowing any surviving bacteria to proliferate and cause turbidity. The MBEC is defined as the lowest concentration of peptides that inhibited turbidity formation in the recovery plate in comparison to sterility controls. This experiment was conducted in triplicate, and the median value from each trial was recorded.

Substance | Minimal Inhibitory Concentration (MIC) [1] [µM] | Minimal Inhibitory Concentration (MIC) [2] [µM] | Minimal Inhibitory Concentration (MIC) [3] [µM] | Minimal Inhibitory Concentration (MIC) [4] [µM] | Minimal Inhibitory Concentration (MIC) [5] [µM] | Minimal Inhibitory Concentration (MIC) [6] [µM] | Minimal Inhibitory Concentration (MIC) [7] [µM] | HC10 (peptide concentration that caused 10% hemolysis) [8] [µM] | MBEC50 [9] [µM] | MBEC90 [9] [µM]
KKLWKKILKWL-NH2 [BP8] | 4 | 2 | 16 | 2 | 4 | 8 | 16 | >256 | 2 | 8
KKLWKKIWKYL-NH2 [BP7] | 2 | 2 | 32 | 4 | 2 | 8 | 4 | >256 | 4 to 8 | 8
KKLWKKIWKYW-NH2 [BP15] | 2 | 4 | 64 | 4 | 4 | 16 | 8 | >256 | 8 to 16 | 16
KKLWKKWLKYW-NH2 [BP14] | 2 | 2 | 64 | 4 | 8 | 16 | 8 | >256 | 8 to 16 | 16
KKWFKKILKWL-NH2 [BP6] | 2 | 2 | 8 | 4 | 4 | 8 | 16 | >256 | 4 | 8
KKWFKKWLKWL-NH2 [BP13] | 4 | 8 | 16 | 8 | 8 | 8 | 16 | >256 | 4 | 8
KKWWKKILKYL-NH2 [BP5] | 2 | 1 | 8 | 2 | 2 | 8 | 4 | >256 | 2 | 8
